Source: patent EP0596929B1, “AMIDE DERIVATIVES OF ANTIBIOTIC A 40926” (GRUPPO LEPETIT S.p.A., priority 1991, dated 1993)

System: highly glycopeptide-resistant enterococci
Settings: summary of Table III

Row | Molecule | in vitro activity against highly glycopeptide-resistant enterococci (in words)
1 | CN[C@H](CC(C)C)C(=O)N[C@H]1C(=O)N[C@@H](CC(N)=O)C(=O)N[C@H]2C(=O)N[C@H]3C(=O)N[C@H](C(=O)N[C@H](C(=O)O)c4cc(O)cc(O)c4-c4cc3ccc4O)[C@H](O)c3ccc(c(Cl)c3)Oc3cc2cc(c3O[C@@H]2O[C@H](CO)[C@@H](O)[C@H](O)[C@H]2O[C@H]2C[C@](C)(N)[C@H](O)[C@H](C)O2)Oc2ccc(cc2Cl)[C@H]1O [vancomycin] | highly resistant
2 | Teicoplanin | highly resistant
